# Data published in PubChem BioAssay (NCI).
#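 Exposure lasted 48 hours, with cells grown in 96-well plates and compounds tested at five concentrations. Definition used: TGI = concentration required for complete inhibition of growth.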
# Assays:
# Test in all cases: growth of human tumour cells (NCI), 48 h
# HS 578T breast = tested on: HS 578T breast
# OVCAR-8 ovarian = tested on: OVCAR-8 ovarian
# 786-0 renal = tested on: 786-0 renal
# MDA-N = tested on: MDA-N
# KM12 colon = tested on: KM12 colon
# SK-MEL-5 melanoma = tested on: SK-MEL-5 melanoma
# RPMI-8226 leukemia = tested on: RPMI-8226 leukemia
# U251 CNS = tested on: U251 CNS
# CCRF-CEM leukemia = tested on: CCRF-CEM leukemia
# COLO 205 colon = tested on: COLO 205 colon
# EKVX NSCLC = tested on: EKVX NSCLC
# HCT-116 colon = tested on: HCT-116 colon
# SK-OV-3 ovarian = tested on: SK-OV-3 ovarian
# SR leukemia = tested on: SR leukemia
# HCT-15 colon = tested on: HCT-15 colon
# PC-3 prostate = tested on: PC-3 prostate
# SF-268 CNS = tested on: SF-268 CNS
# OVCAR-5 ovarian = tested on: OVCAR-5 ovarian
# ACHN renal = tested on: ACHN renal
# IGROV1 ovarian = tested on: IGROV1 ovarian
# SF-539 CNS = tested on: SF-539 CNS
# SNB-19 CNS = tested on: SNB-19 CNS
# MCF7 breast = tested on: MCF7 breast
# K-562 leukemia = tested on: K-562 leukemia
# MOLT-4 leukemia = tested on: MOLT-4 leukemia
# UACC-257 melanoma = tested on: UACC-257 melanoma
# M14 melanoma = tested on: M14 melanoma
# TK-10 renal = tested on: TK-10 renal
# SK-MEL-28 melanoma = tested on: SK-MEL-28 melanoma
# NCI-H522 lung = tested on: NCI-H522 lung
# SW-620 colon = tested on: SW-620 colon
# MDA-MB-231 breast = tested on: MDA-MB-231 breast
# NCI/ADR-RES ovarian = tested on: NCI/ADR-RES ovarian
# SN12C renal = tested on: SN12C renal
# UO-31 renal = tested on: UO-31 renal
# HCC-2998 colon = tested on: HCC-2998 colon
# OVCAR-4 ovarian = tested on: OVCAR-4 ovarian
# A549 NSCLC = tested on: A549 NSCLC
# SF-295 CNS = tested on: SF-295 CNS
# HOP-62 NSCLC = tested on: HOP-62 NSCLC
# T-47D breast = tested on: T-47D breast
# MDA-MB-435 = tested on: MDA-MB-435
# SNB-75 CNS = tested on: SNB-75 CNS
# NCI-H460 lung = tested on: NCI-H460 lung
# HL-60(TB) leukemia = tested on: HL-60(TB) leukemia
# NCI-H23 lung = tested on: NCI-H23 lung
# HOP-92 NSCLC = tested on: HOP-92 NSCLC
# A498 renal = tested on: A498 renal
# NCI-H226 lung = tested on: NCI-H226 lung
# DU-145 prostate = tested on: DU-145 prostate
# HT29 colon = tested on: HT29 colon
# RXF 393 renal = tested on: RXF 393 renal
# LOX IMVI melanoma = tested on: LOX IMVI melanoma
# OVCAR-3 ovarian = tested on: OVCAR-3 ovarian
# UACC-62 melanoma = tested on: UACC-62 melanoma
# MALME-3M melanoma = tested on: MALME-3M melanoma
# SK-MEL-2 melanoma = tested on: SK-MEL-2 melanoma
compound,measurement,setting,value
Nc1ccc(Sc2nnc(N)s2)cc1,TGI,HS 578T breast,> 100 µM
same,TGI,OVCAR-8 ovarian,> 100 µM
same,TGI,786-0 renal,> 100 µM
same,TGI,MDA-N,> 100 µM
same,TGI,KM12 colon,> 100 µM
same,TGI,SK-MEL-5 melanoma,> 100 µM
same,TGI,RPMI-8226 leukemia,> 100 µM
same,TGI,U251 CNS,> 100 µM
same,TGI,CCRF-CEM leukemia,> 100 µM
same,TGI,COLO 205 colon,> 100 µM
same,TGI,EKVX NSCLC,> 100 µM
same,TGI,HCT-116 colon,> 100 µM
same,TGI,SK-OV-3 ovarian,> 100 µM
same,TGI,SR leukemia,> 100 µM
same,TGI,HCT-15 colon,> 100 µM
same,TGI,PC-3 prostate,> 100 µM
same,TGI,SF-268 CNS,> 100 µM
same,TGI,OVCAR-5 ovarian,> 100 µM
same,TGI,ACHN renal,> 100 µM
same,TGI,IGROV1 ovarian,> 100 µM
same,TGI,SF-539 CNS,> 100 µM
same,TGI,SNB-19 CNS,> 100 µM
same,TGI,MCF7 breast,> 100 µM
same,TGI,K-562 leukemia,> 100 µM
same,TGI,MOLT-4 leukemia,> 100 µM
same,TGI,UACC-257 melanoma,> 100 µM
same,TGI,M14 melanoma,> 100 µM
same,TGI,TK-10 renal,> 100 µM
same,TGI,SK-MEL-28 melanoma,> 100 µM
same,TGI,NCI-H522 lung,> 100 µM
same,TGI,SW-620 colon,> 100 µM
same,TGI,MDA-MB-231 breast,> 100 µM
same,TGI,NCI/ADR-RES ovarian,> 100 µM
same,TGI,SN12C renal,> 100 µM
same,TGI,UO-31 renal,> 100 µM
same,TGI,HCC-2998 colon,> 100 µM
same,TGI,OVCAR-4 ovarian,> 100 µM
same,TGI,A549 NSCLC,> 100 µM
same,TGI,SF-295 CNS,> 100 µM
same,TGI,HOP-62 NSCLC,> 100 µM
same,TGI,T-47D breast,> 100 µM
same,TGI,MDA-MB-435,> 100 µM
same,TGI,SNB-75 CNS,> 100 µM
same,TGI,NCI-H460 lung,> 100 µM
same,TGI,HL-60(TB) leukemia,> 100 µM
CCOC(=O)C1CSCCSC1,TGI,HS 578T breast,> 100 µM
same,TGI,OVCAR-8 ovarian,> 100 µM
same,TGI,MDA-N,> 100 µM
same,TGI,KM12 colon,> 100 µM
same,TGI,SK-MEL-5 melanoma,> 100 µM
same,TGI,U251 CNS,> 100 µM
same,TGI,CCRF-CEM leukemia,> 100 µM
same,TGI,COLO 205 colon,> 100 µM
same,TGI,HCT-116 colon,> 100 µM
same,TGI,SK-OV-3 ovarian,> 100 µM
same,TGI,SR leukemia,> 100 µM
same,TGI,HCT-15 colon,> 100 µM
same,TGI,PC-3 prostate,> 100 µM
same,TGI,SF-268 CNS,> 100 µM
same,TGI,ACHN renal,> 100 µM
same,TGI,NCI-H23 lung,> 100 µM
same,TGI,HOP-92 NSCLC,> 100 µM
same,TGI,SNB-19 CNS,> 100 µM
same,TGI,MCF7 breast,> 100 µM
same,TGI,A498 renal,> 100 µM
same,TGI,K-562 leukemia,> 100 µM
same,TGI,MOLT-4 leukemia,> 100 µM
same,TGI,UACC-257 melanoma,> 100 µM
same,TGI,NCI-H226 lung,> 100 µM
same,TGI,TK-10 renal,> 100 µM
same,TGI,SK-MEL-28 melanoma,> 100 µM
same,TGI,NCI-H522 lung,> 100 µM
same,TGI,DU-145 prostate,> 100 µM
same,TGI,HT29 colon,> 100 µM
same,TGI,SW-620 colon,> 100 µM
same,TGI,MDA-MB-231 breast,> 100 µM
same,TGI,NCI/ADR-RES ovarian,> 100 µM
same,TGI,SN12C renal,> 100 µM
same,TGI,UO-31 renal,> 100 µM
same,TGI,HCC-2998 colon,> 100 µM
same,TGI,A549 NSCLC,> 100 µM
same,TGI,SF-295 CNS,> 100 µM
same,TGI,RXF 393 renal,> 100 µM
same,TGI,MDA-MB-435,> 100 µM
same,TGI,SNB-75 CNS,> 100 µM
same,TGI,NCI-H460 lung,57.6 µM
same,TGI,LOX IMVI melanoma,> 100 µM
COc1cc2c3c(c1Oc1nnnn1-c1ccccc1)-c1c(ccc4c1OCO4)C[C@H]3N(C)CC2,TGI,HS 578T breast,> 100 µM
same,TGI,OVCAR-8 ovarian,> 100 µM
same,TGI,OVCAR-3 ovarian,> 100 µM
same,TGI,786-0 renal,39.7 µM
same,TGI,MDA-N,55.1 µM
same,TGI,KM12 colon,> 100 µM
same,TGI,SK-MEL-5 melanoma,> 100 µM
same,TGI,RPMI-8226 leukemia,> 100 µM
same,TGI,U251 CNS,> 100 µM
same,TGI,CCRF-CEM leukemia,> 100 µM
same,TGI,COLO 205 colon,> 100 µM
same,TGI,EKVX NSCLC,> 100 µM
same,TGI,UACC-62 melanoma,29 µM
same,TGI,HCT-116 colon,> 100 µM
same,TGI,SK-OV-3 ovarian,> 100 µM
same,TGI,SR leukemia,> 100 µM
same,TGI,HCT-15 colon,73.1 µM
same,TGI,PC-3 prostate,> 100 µM
same,TGI,SF-268 CNS,> 100 µM
same,TGI,OVCAR-5 ovarian,> 100 µM
same,TGI,MALME-3M melanoma,34.8 µM
same,TGI,ACHN renal,88.7 µM
same,TGI,SK-MEL-2 melanoma,> 100 µM
same,TGI,NCI-H23 lung,> 100 µM
same,TGI,HOP-92 NSCLC,78.6 µM
same,TGI,IGROV1 ovarian,> 100 µM
same,TGI,SF-539 CNS,> 100 µM
same,TGI,SNB-19 CNS,> 100 µM
same,TGI,K-562 leukemia,> 100 µM
same,TGI,MOLT-4 leukemia,> 100 µM
same,TGI,UACC-257 melanoma,40 µM
same,TGI,M14 melanoma,37.5 µM
same,TGI,NCI-H226 lung,> 100 µM
same,TGI,TK-10 renal,> 100 µM
same,TGI,SK-MEL-28 melanoma,37.1 µM
same,TGI,NCI-H522 lung,94.6 µM
same,TGI,DU-145 prostate,> 100 µM
same,TGI,HT29 colon,41.9 µM
same,TGI,SW-620 colon,> 100 µM
same,TGI,MDA-MB-231 breast,> 100 µM
same,TGI,NCI/ADR-RES ovarian,> 100 µM
same,TGI,SN12C renal,> 100 µM
same,TGI,UO-31 renal,> 100 µM
same,TGI,HCC-2998 colon,36.3 µM
same,TGI,A549 NSCLC,> 100 µM
same,TGI,SF-295 CNS,> 100 µM
same,TGI,HOP-62 NSCLC,> 100 µM
same,TGI,T-47D breast,> 100 µM
same,TGI,MDA-MB-435,51.3 µM
same,TGI,SNB-75 CNS,91.3 µM
same,TGI,NCI-H460 lung,> 100 µM
same,TGI,LOX IMVI melanoma,77.5 µM
same,TGI,HL-60(TB) leukemia,> 100 µM
